# “And” between values parts separate entries of the source, which are not always exact repeats. Identical values can stand only once.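 These data come from cells grown in 96-well plates and exposed to compound for 48 hours at five concentrations. Here, GI50 denotes the concentration required for 50% inhibition of growth. TGI: total growth inhibition.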
# System: LOX IMVI melanoma
# Assay: NCI-60 cell line screen, 48 h
SMILES,TGI [µM],GI50 [µM]
CCn1c(C)nn2c(=O)c3ccccc3nc2c1=O,> 100,–
CCOC(=O)CCC1(C(=O)OCC)CCCCC1=O (stereo unspecified),> 100,–
CCN(CC)CCSc1c2ccccc2nc2cc(NCC(=O)Nc3ccccc3-c3ccccc3NC(=O)CNc3ccc4c(SCCN(CC)CC)c5ccccc5nc4c3)ccc12,> 100,–
Cc1nc2c(ccc3ncccc32)[nH]1,> 100,–
Cc1ccsc1C(=S)Nc1ccc(Cl)c(/C=N/OC(C)(C)C)c1,48.8,–
Cc1cc(N(CCC#N)CCC#N)ccc1N=Nc1ccc(S(N)(=O)=O)cc1,> 100,–
CC(=O)[CH-]C(=O)c1ccccc1.CC(=O)[CH-]C(=O)c1ccccc1.CN(C)c1ccc([O-])cc1.CN(C)c1ccc([O-])cc1.Cl.[Ti+4],> 100,26
CC1(C)C(=O)/C=C\C(=O)C(C)(C)C2=CC=C(O2)C(C)(C)C(=O)/C=C\C(=O)C(C)(C)C2=CC=C1O2,> 100,–
NC(=O)NO.O.O.O.O.O.O.O.O.O.O.O.[Ge].[Ge].[Ge].[Ge].[Ge].[O]=[Ge].[O]=[Ge].[O]=[Ge].[O]=[Ge].[O]=[Ge][OH],> 100,–
CN(C)C(=S)N=C(Nc1ccccc1)Nc1ccccc1,> 100,–
CCC[CH2][Sn]([CH2]CCC)([S]c1cccc2cccnc12)[S]c1cccc2cccnc12,0.359,0.175
OCC1=CC(NC2CC(CO)C(O)C(O)C2O)C(O)C(O)C1O (stereo unspecified),> 100,–
Nc1ccccc1S(=O)(=O)N(CC(=O)O)c1ccccc1,> 100,–
CCOC(=O)C(C)(C)Oc1ccc2c(-c3ccccc3)cc(=O)oc2c1,49.4,–
CNS(=O)(=O)NNS(=O)(=O)c1ccccc1,> 100,–
O=C(O)CCC(NC(=O)c1ccc(Nc2nc3ccccc3nc2-c2cccs2)cc1)C(=O)O (stereo unspecified),> 100,–
CC1CCc2nc[nH]c(=O)c21 (stereo unspecified),> 100,> 100
CNC(=S)OCCC(C)CCCC(C)C (stereo unspecified),26.2,–
COC(=O)/C(C#N)=C1\NC(=O)c2ccccc21,> 100,–

# System: EKVX NSCLC
# Assay: NCI-60 cell line screen, 48 h
SMILES,TGI,GI50
COc1cc2c(c3oc4c(O)cccc4c(=O)c13)CC(C(C)(O)CO)O2 (stereo unspecified),> 100 µM,–
CC(=O)OC1OC([C@@H]2c3cccc(O)c3C(=O)c3c(O)cc(C)cc32)C(O)C(O)C1O (stereo partly specified),0.368 µM,0.026 µM
Cc1c(C(=O)C/C(=N/NC(=O)c2ccccc2O)C(=O)Nc2ccccc2C(C)C)[n+](=O)c2ccccc2n1[O-],> 100 µM,–
CCCCCCCCCCCC(=O)OCCOCCOCCOCCOCCOCc1ccccc1,> 100 µM,–
CCCC1C(=O)CCc2c(OC)ccc(OC)c21 (stereo unspecified),> 100 µM,–
O=C(Nc1nc2ccc([N+](=O)[O-])cc2s1)C(=O)C(C1OC(=O)c2ccccc21)[N+](=O)[O-] (stereo unspecified),> 100 µM,–
O=C(CCc1nc(=S)[nH][nH]1)Nc1ccc(Cl)c(Cl)c1,> 100 µM,–
COC(=O)C1(C(C)C)CCc2c(OC)ccc(OC)c2C1=O (stereo unspecified),> 100 µM,–
COC(=O)c1ccccc1NC(=O)C(=O)Cc1nc2c3c(ccc2[nH]c1=O)C(=O)c1ccccc1C3=O,82.1 µM,–
Cc1ccc(S(=O)(=O)OC[C@@H]2CO2)cc1,> 100 µM,–
COc1cc2cc(OC)c3cc4c(cc3c2c(OC)c1OC)OCO4,> 92 µM,–
O=C(CC(=O)c1cccc2ccccc12)C(=O)Nc1ccc(Cl)cc1,> 100 µM,–
C=CCO[C@H]1CO[C@H]2[C@@H]1OC[C@@H]2Oc1ccc(Nc2ccnc(Nc3ccc(O[C@H]4CO[C@H]5[C@@H]4OC[C@@H]5OCC=C)c(Cl)c3)n2)cc1Cl,3.15 µM,1.69 µM
CCCCCCCCCCCCCC(=O)OC(/C=C/C(C)C)C(O)C(O)C(OC)C(=O)NC1CCCCN(C)C1=O (stereo unspecified),17.3 µM and > 49 µM,5.01 µM and 15.7 µM
CC1(C(=O)O)CCC[C@@]2(C)C1CC[C@@]1(C)c3cocc3CCC21 (stereo partly specified),> 100 µM,–
CCn1c(C)nn2c(=O)c3ccccc3nc2c1=O,> 100 µM,–
CCOC(=O)CCC1(C(=O)OCC)CCCCC1=O (stereo unspecified),> 100 µM,–
CCN(CC)CCSc1c2ccccc2nc2cc(NCC(=O)Nc3ccccc3-c3ccccc3NC(=O)CNc3ccc4c(SCCN(CC)CC)c5ccccc5nc4c3)ccc12,> 100 µM,–
Cc1nc2c(ccc3ncccc32)[nH]1,> 100 µM,–
Cc1ccsc1C(=S)Nc1ccc(Cl)c(/C=N/OC(C)(C)C)c1,> 100 µM,–
Cc1cc(N(CCC#N)CCC#N)ccc1N=Nc1ccc(S(N)(=O)=O)cc1,> 100 µM,–
CC(=O)[CH-]C(=O)c1ccccc1.CC(=O)[CH-]C(=O)c1ccccc1.CN(C)c1ccc([O-])cc1.CN(C)c1ccc([O-])cc1.Cl.[Ti+4],> 31.6 µM,24.6 µM
CC1(C)C(=O)/C=C\C(=O)C(C)(C)C2=CC=C(O2)C(C)(C)C(=O)/C=C\C(=O)C(C)(C)C2=CC=C1O2,> 100 µM,–
NC(=O)NO.O.O.O.O.O.O.O.O.O.O.O.[Ge].[Ge].[Ge].[Ge].[Ge].[O]=[Ge].[O]=[Ge].[O]=[Ge].[O]=[Ge].[O]=[Ge][OH],> 100 µM,–
CN(C)C(=S)N=C(Nc1ccccc1)Nc1ccccc1,> 100 µM,–

# From PubChem BioAssay (NCI)
